molecular target: alkaline phosphatase (Bos taurus, UniProt P19111); assay: Solvent screen, visual colour change in PNPP; conditions: 200 μL of the solvent into 2 mL of PNPP; 1-hour
Sequence (P19111 20-506): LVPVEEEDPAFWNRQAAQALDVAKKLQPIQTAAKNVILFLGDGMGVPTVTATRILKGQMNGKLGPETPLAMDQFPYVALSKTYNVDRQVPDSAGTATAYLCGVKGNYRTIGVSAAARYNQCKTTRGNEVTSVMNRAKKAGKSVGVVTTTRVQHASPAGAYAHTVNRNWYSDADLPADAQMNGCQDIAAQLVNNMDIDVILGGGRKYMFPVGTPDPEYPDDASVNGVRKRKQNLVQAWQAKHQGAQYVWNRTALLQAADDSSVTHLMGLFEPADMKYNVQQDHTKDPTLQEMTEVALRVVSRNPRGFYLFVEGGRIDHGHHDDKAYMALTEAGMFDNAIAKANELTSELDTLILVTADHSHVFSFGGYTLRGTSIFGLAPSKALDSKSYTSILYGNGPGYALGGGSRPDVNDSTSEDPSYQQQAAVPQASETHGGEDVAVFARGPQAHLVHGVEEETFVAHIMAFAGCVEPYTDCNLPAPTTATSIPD
Procedure: The results were not quantified with the spectrophotometer but the color change was visually observed. […] Two different dosing concentrations were evaluated, 10 μL of test chemical added to 90 μL of alkaline phosphatase reaction reagent and 50 μL of test chemical added to 50 μL of alkaline phosphatase reaction reagent; all aliquoted in 96-well plates.

Row | SMILES | color change visually observed
1 | CC(C)=O [acetone] | brightest yellow intensity
2 | C[S+](C)[O-] [dimethyl sulfoxide] | no response (clear)
3 | CCO [ethanol] | brightest yellow intensity
4 | CO [methanol] | lesser yellow intensity

From patent publication US20250369032A1 (priority 2023, published 2025)
